Reference: patent US11622991B2, “Protocol for treatment of lupus nephritis” (Aurinia Pharmaceuticals Inc., priority 2017, dated 2023)

Assays:
Format in all cases: in vivo, human
lupus nephritis [1] = test: Low dosage protocol (15.8 mg or 7.9 mg BID)
lupus nephritis [2] = test: Predictability of week 48 partial remission from early C3 normalization (Table 10)
Source text: PR is defined as at least 50% reduction in proteinuria (i.e. UPCR).
Sensitivity is defined as the probability that a subject showing PR at 48 weeks would have shown a favorable result with regard to the marker at the designated early time point. In the tables below, this is the ratio of the number of subjects with favorable marker results (early drop or normalization) to the total subjects with 48 week PR.
Specificity is defined as the probability that a subject not showing PR at 48 weeks would have shown an unfavorable result with regard to the marker at the designated early time point. In the tables below, this is the ratio of the number of subjects with unfavorable marker results (no early drop or no normalization) to the total subjects with no 48 week PR.
Positive predictive value is defined as the probability that a subject showing a favorable result with respect to the marker at an earlier time point would show PR at 48 weeks. In the tables below, this is the ratio of the number of subjects with favorable marker results who have 48 week PR to those with favorable marker results (early reduction or yes column).
Negative predictive value is defined as the probability that a subject showing an unfavorable result with respect to the marker at an earlier time point would not show PR at 48 weeks. In the tables below, this is the ratio of the number of subjects with unfavorable marker results who have no PR at 48 weeks to the total subjects with unfavorable marker results (no early reduction or no column).
Another criterion for effectiveness is normalization of C3 and/or C4 concentration in blood. The normal concentration of C3 is 90 mg/dl or greater and for C4 16 mg/dl or greater.

lupus nephritis [3] = test: Pharmacodynamic dosing (eGFR-based dose reduction): CR/PR in patients with and without dose reduction
Description: To determine the efficacy of the pharmacodynamic protocol wherein dosage is reduced or stopped according to the presence or absence of indicators of the decrease in eGFR experienced as a side effect, these three groups of patients were assessed after 24 weeks and 48 weeks of treatment with respect to whether treatment was altered according to the invention protocol.
In this study, CR was defined as a composite of UPCR ≤0.5 mg/mg; eGFR >60 mL/min/1.73 m^2 or within 20% of baseline, steroids at ≤10 mg/day and no administration of rescue medication. PR is defined as UPCR reduction of 50% from baseline and no use of rescue medication.

[4] = 24 weeks, High Dose (39.5 mg BID)
[5] = 24 weeks, Low Dose (23.7 mg BID)
[6] = 48 weeks, High Dose (39.5 mg BID)
[7] = 48 weeks, Low Dose (23.7 mg BID)
[8] = patients with dose reductions (pharmacodynamically dosed), High Dose (39.5 mg BID)
[9] = patients with dose reductions (pharmacodynamically dosed), Low Dose (23.7 mg BID)
[10] = patients with no dose reductions, High Dose (39.5 mg BID)
[11] = patients with no dose reductions, Low Dose (23.7 mg BID)

Which results are given for C=C/C=C/C[C@@H](C)[C@@H](O)[C@H]1C(=O)N[C@@H](CC)C(=O)N(C)CC(=O)N(C)[C@@H](CC(C)C)C(=O)N[C@@H](C(C)C)C(=O)N(C)[C@@H](CC(C)C)C(=O)N[C@@H](C)C(=O)N[C@H](C)C(=O)N(C)[C@@H](CC(C)C)C(=O)N(C)[C@@H](CC(C)C)C(=O)N(C)[C@@H](C(C)C)C(=O)N1C [voclosporin]?
remission at reduced dosage (lupus nephritis [1]; dosage lowered to 7.9 mg BID quite early in the treatment): Substantial numbers of subjects showed complete or partial remission; remission at reduced dosage (lupus nephritis [1]; dosage reduced almost immediately to 15.8 mg BID): a substantial portion of subjects showed substantial remission; No Week 48 Partial Remission No Normalization (lupus nephritis [2]; week 12, 23.7 mg BID): 10; No Week 48 Partial Remission Normalization (lupus nephritis [2]; week 12, 23.7 mg BID): 8; Normalization Yes (lupus nephritis [2]; week 12, 23.7 mg BID): 31; No Week 48 Partial Remission No Normalization (lupus nephritis [2]; week 12, 39.5 mg BID): 10; No Week 48 Partial Remission Normalization (lupus nephritis [2]; week 12, 39.5 mg BID): 7; No Week 48 Partial Remission No Normalization (lupus nephritis [2]; week 24, 23.7 mg BID): 8; Normalization Yes (lupus nephritis [2]; week 24, 23.7 mg BID): 30; Week 48 Partial Remission No Normalization (lupus nephritis [2]; week 24, 23.7 mg BID): 33; No Week 48 Partial Remission No Normalization (lupus nephritis [2]; week 48, 23.7 mg BID): 8; No Week 48 Partial Remission Normalization (lupus nephritis [2]; week 48, 23.7 mg BID): 2; Normalization Yes (lupus nephritis [2]; week 48, 23.7 mg BID): 27; No Week 48 Partial Remission No Normalization (lupus nephritis [2]; week 48, 39.5 mg BID): 9; No Week 48 Partial Remission Normalization (lupus nephritis [2]; week 48, 39.5 mg BID): 7; Patients with Dose Reduction (lupus nephritis [3]; [4]): 47 (53.4) n(%); Patients with no Dose Reduction (lupus nephritis [3]; [4]): 41 (46.6) n(%); Patients with Dose Reduction (lupus nephritis [3]; [5]): 39 (43.8) n(%); Patients with no Dose Reduction (lupus nephritis [3]; [5]): 50 (56.2) n(%); Patients with Dose Reduction (lupus nephritis [3]; [6]): 53 (60.2) n(%); Patients with no Dose Reduction (lupus nephritis [3]; [6]): 35 (39.8) n(%); Patients with Dose Reduction (lupus nephritis [3]; [7]): 46 (51.7) n(%); Patients with no Dose Reduction (lupus nephritis [3]; [7]): 43 (48.3) n(%); Patients with CR at 24 weeks (lupus nephritis [3]; [8]): 13 (27.7) n(%); Patients with CR at 48 weeks (lupus nephritis [3]; [8]): 24 (45.3) n(%); Patients with PR at 24 weeks (lupus nephritis [3]; [8]): 34 (72.3) n(%); Patients with PR at 48 weeks (lupus nephritis [3]; [8]): 41 (77.4) n(%); Patients with CR at 24 weeks (lupus nephritis [3]; [9]): 14 (35.9) n(%); Patients with CR at 48 weeks (lupus nephritis [3]; [9]): 24 (52.2) n(%); Patients with PR at 24 weeks (lupus nephritis [3]; [9]): 28 (71.8) n(%); Patients with PR at 48 weeks (lupus nephritis [3]; [9]): 35 (76.1) n(%); Patients with CR at 24 weeks (lupus nephritis [3]; [10]): 11 (26.8) n(%); Patients with CR at 48 weeks (lupus nephritis [3]; [10]): 11 (31.4) n(%); Patients with PR at 24 weeks (lupus nephritis [3]; [10]): 24 (58.5) n(%); Patients with PR at 48 weeks (lupus nephritis [3]; [10]): 22 (62.9) n(%); Patients with CR at 24 weeks (lupus nephritis [3]; [11]): 15 (30.0) n(%); Patients with CR at 48 weeks (lupus nephritis [3]; [11]): 20 (46.5) n(%); Patients with PR at 24 weeks (lupus nephritis [3]; [11]): 34 (68.0) n(%); Patients with PR at 48 weeks (lupus nephritis [3]; [11]): 26 (60.5) n(%)
